Columns and labels:
U87MG tumors [1] = test: U87MG human glioblastoma xenograft model (Compound 2); format: in vivo, SCID mice
Experimental: U87MG Human Glioblastoma Xenograft Model (Compound 2). Efficacy Studies: Groups of female SCID mice bearing U87MG tumors (n=8-10/group) were dosed orally with vehicle or Compound 2 (doses ranged between 0.05 and 1 mg/kg) throughout the study, starting when tumor volumes reached approximately 170-180 mm^3. The twice daily (BID) dose groups were dosed with a 10-hour separation between morning and evening doses. In the positive control group, rapamycin was administered every third day (Q3D) via intraperitoneal (IP) route. At the end of each study, plasma and/or tumor samples were collected.
Cell Line and Culture. U87MG cell line was obtained from American Tissue Culture Collection (ATCC) (Gaithersburg, Md.) and grown in growth medium containing MEM, 2 mM L-glutamine, 0.1 mM non-essential amino acids, and 1 mM sodium pyruvate plus 10% FBS. The cells were detached from tissue culture flasks using trypsin-EDTA. After centrifugation, the cell pellets were suspended in PBS and cells counted using a hemocytometer. The final volume was adjusted to 5×10^6 cells/0.1 mL of PBS.
Tumor Cell Inoculation. […]
Randomization of Animals. […] The tumor of each animal was measured and animals with tumors ranging between 170 and 180 mm^3 were included in the study. […]
Tumor Measurements. Tumor volumes were determined prior to the initiation of treatment and were considered as the starting volumes. Thereafter, tumors were measured twice a week for the duration of the study. The long and short axes of each tumor were measured using a digital caliper in millimeters. Tumor volumes were calculated using the formula: width^2×length/2. […]
Body Weight Measurements. Initial body weights were recorded prior to the initiation of treatment using a digital scale. The percentage body weight change during the course of the study was calculated using initial body weight measurements. Body weights of each animal were measured twice a week at the same time as the tumor measurements. Body weights were measured more frequently if significant decreases were noted during the course of the study.

U87MG tumors [2] = test: Apoptosis TUNEL assay in U87MG tumors; format: in vivo, mice; conditions: 5 mg/kg BID oral for 4 days
Experimental: Mechanism of action studies. To determine the mechanism of action of Compound 1, mice bearing U87MG tumors of approximately 500 mm^3 were dosed orally with vehicle or Compound 1 at 5 mg/kg BID for 4 days. The positive control, rapamycin, was dosed at 4 mg/kg Q3D for 4 days. Two hours after the 7th dose of Compound 1 on day 4, animals were euthanized and tumors were dissected out and snap frozen in liquid nitrogen. In the rapamycin-treated group tumors were collected at 2 hour after the 2nd dose on day 4. The tumors were processed for immunohistochemistry (IHC) or TUNEL.
Apoptosis TUNEL Assay. To detect apoptotic cells, fluorescence in situ cell death detection kit (Roche Biosciences) was used. […]
Quantitation of Immunohistochemistry. The tissues sections processed for apoptosis or immunostained for proliferating cells (Ki67) or blood vessels were quantitated using Metamorph software. Using 20× objective, 5 different fields from each section, 2-4 sections from each tumor, and 3-4 tumors from each treatment group or control were used for quantitation. The area of interest was expressed as the percent threshold area of the total area.
Apoptotic Activity of Compound 1. […] FITC-labeled nucleotides (representing the cells with DNA strand breaks, a hallmark of apoptosis) can be detected using a microscope equipped with a fluorescence attachment.

CCN1C(=O)CNc2ncc(-c3ccc(-c4nc[nH]n4)nc3C)nc21 [Compound 2, 1-ethyl-7-(2-methyl-6-(1H-1,2,4-triazol-3-yl)pyridin-3-yl)-3,4-dihydropyrazino[2,3-b]pyrazin-2(1H)-one]
average tumor volumes compared with vehicle (U87MG tumors [1]; 0.05, 0.1 and 0.3 mg/kg BID oral, Day 35): significantly smaller (p<0.001)
average tumor volumes compared with vehicle (U87MG tumors [1]; 0.1, 0.5 and 1 mg/kg QD oral, Day 34): significantly smaller (p<0.001)
lowest efficacious dose (approximately 65% tumor volume inhibition) (U87MG tumors [1]; QD oral, 3 weeks): 0.5 mg/kg

CO[C@H]1CC[C@H](N2C(=O)CNc3ncc(-c4ccc(C(C)(C)O)nc4)nc32)CC1 [Compound 1, 7-(6-(2-hydroxypropan-2-yl)pyridin-3-yl)-1-((1r,4r)-4-methoxycyclohexyl)-3,4-dihydropyrazino-[2,3-b]pyrazin-2(1H)-one]
TUNEL-positive cells compared with vehicle control (U87MG tumors [2]): more than a four-fold increase
